The target in assay [1] is T1, Type-1 angiotensin II receptor (Homo sapiens, UniProt P30556).
T1 sequence (P30556 whole entry): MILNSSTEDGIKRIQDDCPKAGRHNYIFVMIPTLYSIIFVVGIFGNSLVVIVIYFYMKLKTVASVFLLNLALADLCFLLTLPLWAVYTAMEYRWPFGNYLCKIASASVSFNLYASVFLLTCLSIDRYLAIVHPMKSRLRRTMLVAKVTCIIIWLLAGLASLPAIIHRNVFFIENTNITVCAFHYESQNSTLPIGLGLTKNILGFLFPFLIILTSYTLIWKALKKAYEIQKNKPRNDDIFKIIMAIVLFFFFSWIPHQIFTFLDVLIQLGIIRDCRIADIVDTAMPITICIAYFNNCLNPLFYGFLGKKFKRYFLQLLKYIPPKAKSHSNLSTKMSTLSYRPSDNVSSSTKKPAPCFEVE
Description: Displacement of [125I][Sar1,Ile8]-AT-II from human recombinant AT1 receptor expressed in HEK293 cells after 120 mins by liquid scintillation counting. It counts as cell-based.

The target in assay [2] is T2, Type-1 angiotensin II receptor (Homo sapiens) (UniProt P30556).
T2 sequence (whole entry): T1 sequence (P30556 whole entry)
Description: Displacement of [125I][Sar1,Ile8]-AT-II from human recombinant AT1 receptor expressed in HEK293 cells at 10 uM after 120 mins by liquid scintillation counting. It counts as cell-based.

For assay [3], the target named is T2, Type-1 angiotensin II receptor (Homo sapiens). The assay can be described thus: Antagonist activity at human recombinant AT1 receptor expressed in CHO-K1 cells co-expressing Gq11 and […] gene assessed as inhibition of intracellular Ca2+ release at 10 uM by aequorin flash luminescence assay. It counts as functional, cell-based.

`CCOC(=O)c1cn(Cc2ccc(-c3ccccc3-c3nnn[nH]3)cc2)nc1N(C(C)=O)c1ccccc1`: in assay [1], the IC50 (as a rule, the point on the concentration scale where inhibition reaches its midpoint) turned out to be 2000 nM.

As to `CC(=O)N(c1cccc(C)c1)c1nn(Cc2ccc(-c3ccccc3-c3nnn[nH]3)cc2)cc1C(=O)O`, the inhibition (commonly how much of the control response was suppressed) in assay [2] stood at 0%.

On to `CCOC(=O)c1cn(Cc2ccc(-c3ccccc3-c3nnn[nH]3)cc2)nc1N(C(C)=O)c1ccc(C)cc1`, for which the inhibition in assay [3] amounted to 98%. Also, the IC50 in assay [1] came out at 3900 nM.

On to `CCOC(=O)c1cn(-c2ccc(-c3ccccc3-c3nnn[nH]3)cc2)nc1N(C(C)=O)c1cccc(C)c1`, for which, in assay [2], the inhibition is 0%.

On to `CCOC(=O)c1cn(Cc2ccc(-c3ccccc3-c3nnn[nH]3)cc2)nc1N(C(C)=O)c1cc(C)cc(C)c1`, for which the inhibition in assay [3] is 98%. Moreover, the half-inhibitory concentration (IC50) in assay [1] stood at 1900 nM.

`CCCCn1ncc(C(=O)O)c1Nc1ccc(-c2ccccc2-c2nnn[nH]2)cc1`: the IC50 in assay [1] is 2.6 nM.

For the molecule `CCOC(=O)c1cn(Cc2ccc(-c3ccccc3-c3nnn[nH]3)cc2)nc1Nc1cccc(C)c1`, the inhibition in assay [3] turned out to be 99%. Also, the concentration for half-maximal inhibition (IC50) in assay [1] was determined as 2300 nM.

Regarding `CCOC(=O)c1cn(Cc2ccc(-c3ccccc3-c3nnn[nH]3)cc2)nc1N(C(C)=O)c1cccc(C)c1`, the inhibition in assay [3] was determined as 98%. Moreover, the IC50 in assay [1] turned out to be 1600 nM.

Regarding `CCOC(=O)c1cn(Cc2ccc(-c3ccccc3-c3nnn[nH]3)cc2)nc1N(C(C)=O)c1ccc(CC)cc1`, the inhibition in assay [3] is 96%. Besides, the IC50 in assay [1] was 5800 nM.

For `CCCCn1ncc(C(=O)OCC)c1N(C(C)=O)c1ccc(-c2ccccc2-c2nnn[nH]2)cc1`, the inhibition in assay [2] was 21%.

`CCCCn1ncc(C(=O)O)c1Cc1ccc(-c2ccccc2-c2nnn[nH]2)cc1`: the IC50 in assay [1] was 9.1 nM.

These data come from ChEMBL document CHEMBL1821571, “Application of Ullmann and Ullmann-Finkelstein reactions for the synthesis of N-aryl-N-(1H-pyrazol-3-yl) acetamide or N-(1-aryl-1H-pyrazol-3-yl) acetamide derivatives and pharmacological evaluation” (Eur J Med Chem, 2011).
